Results on five compounds are retold here after patent publication US4396543A.

A word on the MIC: it is the smallest concentration in the dilution series that meets the test's criterion for growth inhibition. Lower therefore signals a more susceptible organism.

Converted amounts (≈) assume the structure as drawn. “And” between values parts separate entries of the source, which are not always exact repeats. Identical values can stand only once.

Data set [1] has as its system Staphylococcus aureus. Kind of data set: in vivo experimental bacterial infection, ED50. Conditions: mice, two doses subcutaneously; two values = two experiments.
For data set [2], the system named is Staphylococcus aureus X400. The data set is described as follows: agar-dilution MIC. Format: cell-based. The settings on record: Staphylococcus aureus X400, methicillin-resistant strain; two values = two experiments; 2 median of five, 19 median of three.
Protocol: (§1) In Table VII activity is measured by the minimal inhibitory concentration (MIC), i.e. the lowest concentration of compound at which growth of the microorganism is inhibited by the test compound.
Data set [3] deals with Streptococcus pyogenes C203. Kind of data set: agar-dilution MIC. The class given is cell-based. The settings on record: two values = two experiments, 2 median of five, 19 median of three.
The test system of data set [4] is Staphylococcus epidermidis EPI1. The class given is cell-based. Conditions: two values = two experiments, 2 median of five, 19 median of three.
The test system of data set [5] is Streptococcus Group D 9960. The data set is described as follows: agar-dilution MIC. The settings on record: two values = two experiments, 2 median of five, 19 median of three. The class given is cell-based.
Protocol: as §1
For data set [6], the system named is Streptococcus Group D X66. Kind of data set: agar-dilution MIC. The class given is cell-based. Conditions: two values = two experiments, 2 median of five, 19 median of three.
Protocol: as §1
Data set [7] concerns Staphylococcus epidermidis EPI2. Kind of data set: agar-dilution MIC. Conditions: two values = two experiments, 2 median of five, 19 median of three. The class given is cell-based.
For data set [8], the system named is Staphylococcus aureus V41. Kind of data set: agar-dilution MIC. Format: cell-based. Conditions: Staphylococcus aureus V41, penicillin-resistant strain; two values = two experiments; 2 median of five, 19 median of three.
Protocol: as §1
Data set [9] concerns Streptococcus pneumoniae Park I. Format: cell-based. Conditions: two values = two experiments, 2 median of five, 19 median of three.
Protocol: as §1
Data set [10] deals with Staphylococcus aureus X1.1. Kind of data set: agar-dilution MIC. The settings on record: two values = two experiments, 2 median of five, 19 median of three experiments. Format: cell-based.
Protocol: as §1
Data set [11] is described as follows: toxicity test, LD50. The settings on record: mouse, in vivo, iv; administered intravenously; read-out: LD50 (mg/kg) in Mice.
In data set [12] the test system is Streptococcus pyogenes. Kind of data set: in vivo experimental bacterial infection, ED50. Conditions: mice; for ED50 Values Streptococcus pyogenes Oral: two doses orally; for ED50 Values Streptococcus pyogenes Subcutaneous: two doses subcutaneously, two values = two experiments.

For the compound `CCCCCCCCCCCC(=O)N[C@@H](Cc1c[nH]c2ccccc12)C(=O)N[C@@H](Cc1c[nH]c2ccccc12)C(=O)N[C@H](CC(N)=O)C(=O)N[C@@H](CC(=O)O)C(=O)N[C@@H]1C(=O)NCC(=O)N[C@@H](CCCN)C(=O)N[C@@H](CC(=O)O)C(=O)N[C@H](C)C(=O)N[C@@H](CC(=O)O)C(=O)NCC(=O)N[C@H](CO)C(=O)N[C@@H]([C@H](C)CC(=O)O)C(=O)N[C@@H](CC(=O)c2ccccc2N)C(=O)O[C@@H]1C` [Compound 24], the “ED50 Values Staphylococcus aureus Subcutaneous” value in data set [1] turned out to be 2.3 mg/kg × 2. Also, the MIC was found to be 4 µg/mL (≈ 2.18 µM) in data set [2]; 2 µg/mL (≈ 1.09 µM) in data set [3]; 4 µg/mL (≈ 2.18 µM) in data set [4]; 4 µg/mL (≈ 2.18 µM) in data set [5]; 16 µg/mL (≈ 8.72 µM) in data set [6]; 4 µg/mL (≈ 2.18 µM) in data set [7]. Further, the minimum inhibitory concentration (MIC) was 2 µg/mL (≈ 1.09 µM) in data set [8], 1 µg/mL (≈ 0.545 µM) in data set [9] and 1 µg/mL (≈ 0.545 µM) in data set [10]. For the same compound, the LD50 in data set [11] was 450 mg/kg. In addition, in data set [12], the “ED50 Values Streptococcus pyogenes Oral” value was more than 200 mg/kg × 2.

For the compound `CCCCCCCCCCCC(=O)NCCCCCCCCCCC(=O)N[C@@H](Cc1c[nH]c2ccccc12)C(=O)N[C@H](CC(N)=O)C(=O)N[C@@H](CC(=O)O)C(=O)N[C@@H]1C(=O)NCC(=O)N[C@@H](CCCN)C(=O)N[C@@H](CC(=O)O)C(=O)N[C@H](C)C(=O)N[C@@H](CC(=O)O)C(=O)NCC(=O)N[C@H](CO)C(=O)N[C@@H]([C@H](C)CC(=O)O)C(=O)N[C@@H](CC(=O)c2ccccc2N)C(=O)O[C@@H]1C` [Compound 3], in data set [1], the “ED50 Values Staphylococcus aureus Subcutaneous” value was more than 18 mg/kg × 2. The MIC in data set [2] was determined as 8 µg/mL (≈ 4.37 µM); in data set [3] it was 2 µg/mL (≈ 1.09 µM); in data set [4] it was 8 µg/mL (≈ 4.37 µM); in data set [5], 8 µg/mL (≈ 4.37 µM); in [6], 8 µg/mL (≈ 4.37 µM); in data set [7], 8 µg/mL (≈ 4.37 µM). The values for the MIC in [8], in data set [9] and in data set [10] were 2 µg/mL (≈ 1.09 µM), 0.5 µg/mL (≈ 0.273 µM) and 2 µg/mL (≈ 1.09 µM), respectively. For the same compound, the LD50 in data set [11] was found to be 600 mg/kg. For the same compound, the “ED50 Values Streptococcus pyogenes Oral” value in data set [12] is on record as more than 200 mg/kg × 2. Besides, in data set [12], the “ED50 Values Streptococcus pyogenes Subcutaneous” value is reported as 6.2 mg/kg × 2.

In the case of `CCCCCCCCCCCC(=O)N[C@@H](Cc1ccccc1)C(=O)N[C@@H](Cc1c[nH]c2ccccc12)C(=O)N[C@H](CC(N)=O)C(=O)N[C@@H](CC(=O)O)C(=O)N[C@@H]1C(=O)NCC(=O)N[C@@H](CCCN)C(=O)N[C@@H](CC(=O)O)C(=O)N[C@H](C)C(=O)N[C@@H](CC(=O)O)C(=O)NCC(=O)N[C@H](CO)C(=O)N[C@@H]([C@H](C)CC(=O)O)C(=O)N[C@@H](CC(=O)c2ccccc2N)C(=O)O[C@@H]1C` [Compound 8], the “ED50 Values Staphylococcus aureus Subcutaneous” value in data set [1] is listed as 2.35 mg/kg × 2. The MIC was found to be 0.5 µg/mL (≈ 0.278 µM) in data set [2]; 0.25 µg/mL (≈ 0.139 µM) in data set [3]; 1 µg/mL (≈ 0.557 µM) in data set [4]; 0.25 µg/mL (≈ 0.139 µM) in [5]; 1 µg/mL (≈ 0.557 µM) in data set [6]; 1 µg/mL (≈ 0.557 µM) in data set [7]. Moreover, the MIC came to 0.25 µg/mL (≈ 0.139 µM) in data set [8], 0.125 µg/mL (≈ 0.0696 µM) in [9] and 0.25 µg/mL (≈ 0.139 µM) in data set [10]. In data set [11], the LD50 was 250 mg/kg. The “ED50 Values Streptococcus pyogenes Oral” value in [12] worked out at 150 mg/kg × 2. Also, in data set [12], the “ED50 Values Streptococcus pyogenes Subcutaneous” value was found to be 0.32 mg/kg × 2.

Take `CCCCCCCCCCCC(=O)Nc1cc(Cl)cc(C(=O)N[C@@H](Cc2c[nH]c3ccccc23)C(=O)N[C@H](CC(N)=O)C(=O)N[C@@H](CC(=O)O)C(=O)N[C@@H]2C(=O)NCC(=O)N[C@@H](CCCN)C(=O)N[C@@H](CC(=O)O)C(=O)N[C@H](C)C(=O)N[C@@H](CC(=O)O)C(=O)NCC(=O)N[C@H](CO)C(=O)N[C@@H]([C@H](C)CC(=O)O)C(=O)N[C@@H](CC(=O)c3ccccc3N)C(=O)O[C@@H]2C)c1Cl` [Compound 7]: the “ED50 Values Staphylococcus aureus Subcutaneous” value in [1] is recorded as 19 mg/kg × 2. Besides, the MIC in data set [2] came out at 2 µg/mL (≈ 1.09 µM); in [3] it was 1 µg/mL (≈ 0.544 µM); in data set [4], 2 µg/mL (≈ 1.09 µM); in data set [5], 2 µg/mL (≈ 1.09 µM); in data set [6], 2 µg/mL (≈ 1.09 µM); in data set [7], 2 µg/mL (≈ 1.09 µM). Further, the minimal inhibitory concentration (MIC) amounted to 1 µg/mL (≈ 0.544 µM) in data set [8], 0.125 µg/mL (≈ 0.0681 µM) in data set [9] and 0.5 µg/mL (≈ 0.272 µM) in data set [10]. For the same compound, the LD50 in [11] worked out at 200 mg/kg. In data set [12], the “ED50 Values Streptococcus pyogenes Oral” value was more than 200 mg/kg × 2. Besides, in [12], the “ED50 Values Streptococcus pyogenes Subcutaneous” value turned out to be 0.23 mg/kg × 2.

With `CCCCCCCCCC(=O)N[C@@H](Cc1ccccc1)C(=O)N[C@@H](Cc1c[nH]c2ccccc12)C(=O)N[C@H](CC(N)=O)C(=O)N[C@@H](CC(=O)O)C(=O)N[C@@H]1C(=O)NCC(=O)N[C@@H](CCCN)C(=O)N[C@@H](CC(=O)O)C(=O)N[C@H](C)C(=O)N[C@@H](CC(=O)O)C(=O)NCC(=O)N[C@H](CO)C(=O)N[C@@H]([C@H](C)CC(=O)O)C(=O)N[C@@H](CC(=O)c2ccccc2N)C(=O)O[C@@H]1C` [Compound 19, NTrp-[N-(n-Decanoyl)-L-phenylalanyl]-A-21978C Nucleus], the “ED50 Values Staphylococcus aureus Subcutaneous” value in [1] is 0.7 mg/kg × 2 and 0.98 mg/kg × 2. The MIC in data set [2] stood at 1 µg/mL (≈ 0.566 µM); in data set [3], 0.25 µg/mL (≈ 0.141 µM); in [4] it was 1 µg/mL (≈ 0.566 µM); in data set [5], 2 µg/mL (≈ 1.13 µM); in data set [6], 8 µg/mL (≈ 4.53 µM); in data set [7], 0.5 µg/mL (≈ 0.283 µM). Also, the results for the MIC in [8], in [9] and in data set [10] were 0.5 µg/mL (≈ 0.283 µM), 0.75 µg/mL (≈ 0.424 µM) and 0.5 µg/mL (≈ 0.283 µM), respectively. In addition, the LD50 in data set [11] amounted to 600 mg/kg. In data set [12], the “ED50 Values Streptococcus pyogenes Oral” value was more than 200 mg/kg × 2. Moreover, in data set [12], the “ED50 Values Streptococcus pyogenes Subcutaneous” value stood at 0.39 mg/kg × 2.
